The source made the active and inactive calls. The rule behind the calls is not given here.
What was measured:
[1] = Selectivity ratio of IC50 for cytotoxicity against human A549 cells harboring wild type EGFR to IC50 for antiproliferative activity against human NCI-H1975 cells harboring EGFR L858R/T790M mutant; format: toxicity, cell-based; conditions: read-out: Ratio IC50
[2] = Selectivity ratio of IC50 for cytotoxicity against human A-431 cells harboring wild type EGFR to IC50 for antiproliferative activity against human NCI-H1975 cells harboring EGFR L858R/T790M mutant; format: toxicity, cell-based; conditions: read-out: Ratio IC50
[3] = biological target: T1, Tyrosine-protein kinase Tec (Homo sapiens) (UniProt P42680); assay: Inhibition of human wild type partial length TEC kinase (L341 to D620 residues) expressed in bacterial expression system assessed as residual activity at 1 uM by KINOMEscan analysis
T1 sequence (whole entry): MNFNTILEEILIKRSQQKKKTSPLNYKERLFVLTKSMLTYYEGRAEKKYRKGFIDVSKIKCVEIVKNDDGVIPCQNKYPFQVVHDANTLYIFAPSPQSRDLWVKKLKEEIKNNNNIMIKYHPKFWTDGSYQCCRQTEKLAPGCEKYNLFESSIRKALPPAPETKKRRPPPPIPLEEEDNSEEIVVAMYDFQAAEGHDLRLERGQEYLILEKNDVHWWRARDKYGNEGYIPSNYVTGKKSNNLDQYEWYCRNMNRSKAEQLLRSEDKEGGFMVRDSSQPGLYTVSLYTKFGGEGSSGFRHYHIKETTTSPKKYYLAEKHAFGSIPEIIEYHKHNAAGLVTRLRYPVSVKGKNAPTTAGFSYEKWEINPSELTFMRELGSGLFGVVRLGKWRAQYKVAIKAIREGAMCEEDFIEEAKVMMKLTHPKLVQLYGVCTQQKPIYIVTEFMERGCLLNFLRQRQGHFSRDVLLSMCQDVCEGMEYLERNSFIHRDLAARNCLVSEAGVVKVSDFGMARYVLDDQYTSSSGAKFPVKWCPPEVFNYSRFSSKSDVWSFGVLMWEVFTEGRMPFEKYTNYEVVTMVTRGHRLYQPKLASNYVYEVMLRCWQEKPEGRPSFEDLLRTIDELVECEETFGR

[4] = biological target: STE20-like serine/threonine-protein kinase (Homo sapiens, UniProt Q9H2G2); assay: Inhibition of human wild type partial length SLK (S14 to A307 residues) expressed in bacterial expression system assessed as residual activity at 1 uM by KINOMEscan analysis
[5] = test system: Epidermal growth factor receptor (Homo sapiens), P00533 [UNDEFINED MUTATION]; assay: Inhibition of EGFR exon del19 mutant in human HCC827 cells assessed as inhibition of EGF-induced EGFR phosphorylation at Tyr1068 residue at 1 uM pretreated with compound for 4 hrs followed by incubation with EGF for 10 mins by western blot analysis; format: cell-based; conditions: time 250.0 min
[6] = biological target: Epidermal growth factor receptor (Homo sapiens, UniProt P00533); assay: Inhibition of wild type EGFR in human A-431 cells assessed as inhibition of EGF-induced ERK1/2 phosphorylation at 0.1 to 10 uM pretreated with compound for 4 hrs followed by incubation with EGF for 10 mins by western blot analysis; format: toxicity, cell-based; conditions: a-431, 4.167 h, dose 0.1-10 µM, time 250 min
[7] = test system: NCI-H1975; assay: Induction of apoptosis in human NCI-H1975 cells assessed as induction of caspase-3 cleavage pretreated with compound for 4 hrs followed by incubation with EGF for 10 mins by western blot analysis; format: functional, cell-based; conditions: dose 0.1-10 µM, time 250.0 min
[8] = test system: HCC827; assay: Induction of apoptosis in human HCC827 cells assessed as induction of caspase-3 cleavage pretreated with compound for 4 hrs followed by incubation with EGF for 10 mins by western blot analysis; format: functional, cell-based; conditions: dose 0.1-10 µM, time 250.0 min
[9] = test system: A549; assay: Induction of apoptosis in human A549 cells assessed as induction of PARP cleavage at 0.1 to 10 uM pretreated with compound for 4 hrs followed by incubation with EGF for 10 mins by western blot analysis; format: toxicity, cell-based; conditions: a549, 4.167 h, dose 0.1-10 µM, time 250 min
[10] = test system: A-431; assay: Induction of apoptosis in human A-431 cells assessed as induction of PARP cleavage at 0.1 to 10 uM pretreated with compound for 4 hrs followed by incubation with EGF for 10 mins by western blot analysis; format: toxicity, cell-based; conditions: a-431, 4.167 h, dose 0.1-10 µM, time 250 min
[11] = test system: NCI-H1975; assay: Antitumor activity against human NCI-H1975 cells xenografted in ip dosed BALB/c mouse assessed as decrease in tumor volume; format: functional, organism-based; conditions: dose 5-20 mg/kg/day
[12] = test system: NCI-H1975; assay: Antitumor activity against human NCI-H1975 cells xenografted in ip dosed BALB/c mouse assessed as decrease in tumor weight; format: functional, organism-based; conditions: dose 5-20 mg/kg/day
[13] = Toxicity in BALB/c mouse xenografted with human NCI-H1975 cells assessed as change in spleen morphological changes at 5 to 20 mg/kg/day, ip by hematoxylin-eosin staining based analysis; format: organism-based; conditions: in vivo, dose 5-20 mg/kg/day
[14] = Toxicity in BALB/c mouse xenografted with human NCI-H1975 cells assessed as change in lung morphological changes at 5 to 20 mg/kg/day, ip by hematoxylin-eosin staining based analysis; format: organism-based; conditions: in vivo, dose 5-20 mg/kg/day
[15] = test system: Mus musculus; assay: In vivo inhibition of EGFR L858R/T790M mutant in ip dosed NCI-H1975 cells xenografted BALB/c mouse assessed as inhibition of EGFR phosphorylation at Tyr1068 residue in tumor by immunoblot analysis; format: functional, organism-based; conditions: dose 5-20 mg/kg/day
[16] = test system: Mus musculus; assay: In vivo inhibition of EGFR L858R/T790M mutant in NCI-H1975 cells xenografted BALB/c mouse assessed as inhibition of EGFR phosphorylation at Tyr1068 residue in tumor at 20 mg/kg/day, ip by immunoblot analysis; format: functional, organism-based
[17] = test system: Mus musculus; assay: In vivo inhibition of EGFR L858R/T790M mutant in NCI-H1975 cells xenografted BALB/c mouse assessed as inhibition of AKT phosphorylation at Ser473 residue at 5 to 20 mg/kg/day, ip in tumor by immunohistochemistry; format: functional, organism-based; conditions: dose 5-20 mg/kg/day
[18] = test system: Epidermal growth factor receptor (Homo sapiens), P00533 [L858R,T790M]; assay: (§1) Inhibition of EGFR L858R/T790M mutant in N-(3-((6-Fluoro-2-((4-(4-methylpiperazin-1-yl)phenyl)amino)quinazolin-4-yl)amino)phenyl)acrylamide-resistant human NCI-H1975 cells assessed as inhibition of EGF-induced Akt phosphorylation at Ser473 residue pretreated with compound for 4 hrs followed by incubation with EGF for 10 mins by western blot analysis; format: cell-based; conditions: time 250.0 min
[19] = test system: NCI-H1975; assay: Antiproliferative activity against N-(3-((6-Fluoro-2-((4-(4-methylpiperazin-1-yl)phenyl)amino)quinazolin-4-yl)amino)phenyl)acrylamide-resistant human NCI-H1975 cells assessed as reduction in cell viability at compound:dasatinib concentration ratio of 3:1 to 1:3 measured after 72 hrs in presence of ACK1 inhibitor, Dasatinib by MTT assay; format: functional, cell-based
[20] = test system: Epidermal growth factor receptor (Homo sapiens), P00533 [L858R,T790M]; assay: as §1, with “AKT” for “Akt”, “compound and ACK1 inhibitor, AIM-100” for “compound”; format: cell-based; conditions: time 250.0 min
[21] = Toxicity in BALB/c mouse xenografted with N-(3-((6-Fluoro-2-((4-(4-methylpiperazin-1-yl)phenyl)amino)quinazolin-4-yl)amino)phenyl)acrylamide-resistant human NCI-H1975 cells assessed as changes in kidney morphological changes at 20 mg/kg/day, ip in presence of ACK1 inhibitor, dasatinib by hematoxylin-eosin staining based analysis; format: organism-based; conditions: in vivo
[22] = test system: NCI-H1975; assay: Antitumor activity against human NCI-H1975 cells xenografted in BALB/c mouse assessed as tumor regression at 10 mg/kg/day, po; format: functional, organism-based

Sequence of Epidermal growth factor receptor (Homo sapiens), P00533 [L858R,T790M] (P00533 whole entry T790M/L858R, looked up): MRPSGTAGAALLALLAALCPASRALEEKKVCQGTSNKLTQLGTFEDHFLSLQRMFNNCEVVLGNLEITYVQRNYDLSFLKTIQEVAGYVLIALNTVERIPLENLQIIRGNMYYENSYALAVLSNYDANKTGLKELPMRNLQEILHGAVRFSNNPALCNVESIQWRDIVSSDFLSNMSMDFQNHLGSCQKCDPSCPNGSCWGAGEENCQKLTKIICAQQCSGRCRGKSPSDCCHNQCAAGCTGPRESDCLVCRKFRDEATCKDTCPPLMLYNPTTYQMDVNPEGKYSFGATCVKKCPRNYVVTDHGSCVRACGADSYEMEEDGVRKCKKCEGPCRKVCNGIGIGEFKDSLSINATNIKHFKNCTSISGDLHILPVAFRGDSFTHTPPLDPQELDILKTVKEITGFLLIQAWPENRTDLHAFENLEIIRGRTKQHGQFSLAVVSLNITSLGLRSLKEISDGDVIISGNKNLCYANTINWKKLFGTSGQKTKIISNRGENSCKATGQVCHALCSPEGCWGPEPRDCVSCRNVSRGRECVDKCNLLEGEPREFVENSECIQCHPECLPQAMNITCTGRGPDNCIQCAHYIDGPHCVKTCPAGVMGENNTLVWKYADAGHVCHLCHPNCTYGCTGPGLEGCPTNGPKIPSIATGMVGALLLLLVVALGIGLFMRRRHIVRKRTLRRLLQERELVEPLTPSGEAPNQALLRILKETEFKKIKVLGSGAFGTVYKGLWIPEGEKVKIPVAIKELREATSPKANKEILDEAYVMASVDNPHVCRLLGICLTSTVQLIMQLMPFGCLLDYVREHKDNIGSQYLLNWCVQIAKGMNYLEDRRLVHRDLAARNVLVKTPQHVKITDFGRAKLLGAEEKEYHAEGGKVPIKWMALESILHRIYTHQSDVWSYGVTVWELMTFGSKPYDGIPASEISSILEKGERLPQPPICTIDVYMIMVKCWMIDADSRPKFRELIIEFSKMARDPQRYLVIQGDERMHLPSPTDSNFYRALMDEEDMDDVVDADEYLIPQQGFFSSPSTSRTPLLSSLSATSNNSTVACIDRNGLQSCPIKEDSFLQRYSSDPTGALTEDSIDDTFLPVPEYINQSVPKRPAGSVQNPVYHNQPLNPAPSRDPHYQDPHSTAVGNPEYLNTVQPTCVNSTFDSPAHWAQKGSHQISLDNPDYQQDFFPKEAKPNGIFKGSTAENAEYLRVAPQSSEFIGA
Sequence of STE20-like serine/threonine-protein kinase (Q9H2G2 whole entry, looked up, the tested form may be a part): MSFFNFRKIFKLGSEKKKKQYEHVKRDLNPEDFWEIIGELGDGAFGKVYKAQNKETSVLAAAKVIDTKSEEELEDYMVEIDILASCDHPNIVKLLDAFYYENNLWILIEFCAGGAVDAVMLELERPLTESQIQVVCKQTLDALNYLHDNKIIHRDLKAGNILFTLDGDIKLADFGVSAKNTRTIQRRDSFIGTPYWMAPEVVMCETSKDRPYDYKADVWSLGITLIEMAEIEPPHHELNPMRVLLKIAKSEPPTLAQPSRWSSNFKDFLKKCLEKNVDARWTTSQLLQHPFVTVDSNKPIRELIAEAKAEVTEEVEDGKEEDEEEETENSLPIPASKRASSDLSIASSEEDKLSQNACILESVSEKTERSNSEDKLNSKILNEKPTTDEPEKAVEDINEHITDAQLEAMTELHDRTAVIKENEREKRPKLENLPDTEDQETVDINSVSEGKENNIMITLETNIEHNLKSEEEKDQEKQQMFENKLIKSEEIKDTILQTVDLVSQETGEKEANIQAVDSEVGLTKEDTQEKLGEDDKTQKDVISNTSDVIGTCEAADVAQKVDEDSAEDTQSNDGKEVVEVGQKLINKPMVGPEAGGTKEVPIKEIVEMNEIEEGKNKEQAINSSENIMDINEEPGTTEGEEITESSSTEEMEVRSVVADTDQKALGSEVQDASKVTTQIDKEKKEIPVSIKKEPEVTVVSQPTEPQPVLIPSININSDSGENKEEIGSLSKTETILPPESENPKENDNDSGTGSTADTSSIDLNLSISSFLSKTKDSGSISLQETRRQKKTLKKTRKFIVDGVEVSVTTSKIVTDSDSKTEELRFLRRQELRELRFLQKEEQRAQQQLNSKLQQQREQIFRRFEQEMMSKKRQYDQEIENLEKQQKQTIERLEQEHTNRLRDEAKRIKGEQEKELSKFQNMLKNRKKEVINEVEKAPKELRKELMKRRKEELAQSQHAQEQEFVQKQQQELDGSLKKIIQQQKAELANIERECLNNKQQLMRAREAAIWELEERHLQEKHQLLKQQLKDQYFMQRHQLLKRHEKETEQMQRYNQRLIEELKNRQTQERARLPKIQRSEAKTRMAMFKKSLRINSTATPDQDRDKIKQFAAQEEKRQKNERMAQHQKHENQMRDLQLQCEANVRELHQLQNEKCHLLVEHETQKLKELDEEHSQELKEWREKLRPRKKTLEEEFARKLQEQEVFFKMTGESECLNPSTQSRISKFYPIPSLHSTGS
Sequence of Epidermal growth factor receptor (Homo sapiens), P00533 [UNDEFINED MUTATION] (P00533 whole entry, looked up, stated change not applied): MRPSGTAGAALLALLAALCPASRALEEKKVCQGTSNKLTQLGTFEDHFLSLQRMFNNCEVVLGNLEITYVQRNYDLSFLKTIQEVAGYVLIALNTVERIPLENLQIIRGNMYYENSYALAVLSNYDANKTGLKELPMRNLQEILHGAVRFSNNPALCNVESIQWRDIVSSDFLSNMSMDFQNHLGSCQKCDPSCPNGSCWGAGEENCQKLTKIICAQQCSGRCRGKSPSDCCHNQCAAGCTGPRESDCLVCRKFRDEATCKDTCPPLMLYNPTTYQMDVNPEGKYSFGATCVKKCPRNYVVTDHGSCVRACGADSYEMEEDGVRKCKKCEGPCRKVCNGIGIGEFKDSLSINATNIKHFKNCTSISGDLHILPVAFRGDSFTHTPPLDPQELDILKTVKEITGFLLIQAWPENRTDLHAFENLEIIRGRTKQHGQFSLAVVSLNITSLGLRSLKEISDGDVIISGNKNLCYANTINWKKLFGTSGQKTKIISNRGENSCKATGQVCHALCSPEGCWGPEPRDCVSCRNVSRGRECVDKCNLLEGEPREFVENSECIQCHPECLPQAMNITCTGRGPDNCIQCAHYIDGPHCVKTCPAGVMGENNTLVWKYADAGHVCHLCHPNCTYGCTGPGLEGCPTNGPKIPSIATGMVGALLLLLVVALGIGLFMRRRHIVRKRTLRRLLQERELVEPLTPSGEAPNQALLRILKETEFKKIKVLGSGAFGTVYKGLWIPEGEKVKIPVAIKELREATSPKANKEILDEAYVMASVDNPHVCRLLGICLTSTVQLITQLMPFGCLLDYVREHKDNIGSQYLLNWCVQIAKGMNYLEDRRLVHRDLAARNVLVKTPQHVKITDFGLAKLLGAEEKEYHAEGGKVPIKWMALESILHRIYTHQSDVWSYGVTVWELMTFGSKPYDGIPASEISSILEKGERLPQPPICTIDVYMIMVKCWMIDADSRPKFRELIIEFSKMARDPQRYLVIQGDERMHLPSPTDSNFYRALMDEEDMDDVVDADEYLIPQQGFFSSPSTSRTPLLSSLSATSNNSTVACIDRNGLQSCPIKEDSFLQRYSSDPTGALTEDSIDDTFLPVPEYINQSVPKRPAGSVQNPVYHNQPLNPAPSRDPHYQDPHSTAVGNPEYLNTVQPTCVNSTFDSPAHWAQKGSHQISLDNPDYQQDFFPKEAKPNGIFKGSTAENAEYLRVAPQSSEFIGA
Sequence of Epidermal growth factor receptor (P00533 whole entry): as the sequence (P00533 whole entry, looked up, stated change not applied) above

SMILES: C=CC(=O)Nc1cccc(Nc2nc(Nc3ccc(N4CCN(C)CC4)cc3)nc3ccc(F)cc23)c1
- selectivity ratio [1]: 211
- selectivity ratio [2]: 130
- Activity [3]: 14%
- Activity [4]: 29%
- inhibition [5]: Active
- inhibition (INH) [6]: Not Active
- Activity [7]: Dose-Dependent Effect
- Activity [8]: Dose-Dependent Effect
- Activity [9]: Non-Toxic
- Activity [10]: Non-Toxic
- Activity [11]: Dose-Dependent Effect
- Activity [12]: Dose-Dependent Effect
- Activity [13]: Non-Toxic
- Activity [14]: Non-Toxic
- inhibition [15]: Dose-Dependent Effect
- inhibition [16]: Active
- inhibition [17]: Active
- inhibition [18]: inactive
- Activity [19]: Active
- inhibition [20]: Active
- Activity [21]: Non-Toxic

SMILES: C=CC(=O)Nc1cc(Nc2nccc(-c3cn(C)c4ccccc34)n2)c(OC)cc1N(C)CCN(C)C [OSIMERTINIB]
- Activity [22]: Active

Source: ChEMBL document CHEMBL5380860, “Design, Synthesis, and Antitumor Activity of Potent and Selective EGFR L858R/T790M Inhibitors and Identification of a Combination Therapy to Overcome Acquired Resistance in Models of Non-small-cell Lung Cancer” (J Med Chem, 2023)
